Reference: patent publication US20020106705A1, “Detection method for monitoring beta tubulin isotype specific modification” (Tularik Inc., priority 1999, published 2002)

What was measured:
[1] = tested on: β-tubulin in white blood cells; experiment: Western blot of white blood cells from rats after compound 1 infusion; format: in vivo, rat; conditions: 3 h infusion of compound 1 sodium salt, 20 mg/kg
Procedure: (§1) White blood cells (“WBC”) were isolated from blood samples (5 ml) taken immediately after a 3 h infusion of compound 1 sodium salt from rats or a human patient treated at 20 mg/kg and 220 mg/m2, respectively, as follows. The samples were mixed with 5 ml of PBS and layered on a Ficoll cushion (10 ml, “Lymphoprep” (density is ˜1.077 and osmolality 280 mOsm, Gibco/BRL). After centrifugation (1000 rpm, 30 min (Sorvall RC3C centrifuge)) at room temperature WBC were isolated from the cushion and the sample was diluted 1:5 with PBS. After centrifugation (2000 rpm for 10 min) the liquid was discarded and the cell pellet was resuspended in 1 ml of PBS. The solution was transferred to an Eppendorf tube and the cells were collected by centrifugation (3000 rpm, 5 min). After the supernatant was discarded the cell pellet was stored at −80° C. or processed as follows. Rat WBC-pellet was resuspended in 15 μl of IEF-buffer and mixed with 15 μl of 2× SDS sample buffer. The human sample was mixed immediately with an equal volume (10 μl) of SDS sample buffer. Protein samples ([…], human; 2 μl, rat) were analyzed by SDS-PAGE and subjected to western blot analyzes as outlined above.

[2] = tested on: β-tubulin in white blood cells; experiment: Western blot of white blood cells from a human patient after compound 1 infusion; format: in vivo
Procedure: as §1
As a standard 10 μg of purified brain tubulin was mixed with […] of BRB80 buffer and incubated with 10 μl of ^3H-compound 1 (10 μCi) in a 500 μl reaction at […] for 2 h. […]

β-tubulin isotypes = conditions: cited from earlier work
cellular tubulin = conditions: cited from earlier work

COc1ccc(NS(=O)(=O)c2c(F)c(F)c(F)c(F)c2F)cc1F [compound 1, 2-fluoro-1-methoxy-4-pentafluorophenylsulfonamidobenzene]
β-tubulin modification in white blood cells (western blot with 2C1H7) [1]: a protein consistent of the size of β-tubulin was visible | amount of loaded tubulin modified by compound 1 ([2]; human WBC sample, compared with 3H-compound 1-β-tubulin standard curve): ~7.5 fmol | β-tubulin modification in white blood cells (western blot with 2C1H7) ([2]; human patient, 3 h infusion of compound 1 sodium salt, 220 mg/m2): a protein consistent of the size of β-tubulin was visible | modification of other cellular proteins (β-tubulin isotypes): no other cellular proteins are modified | covalent modification of β-tubulin isotypes (β-tubulin isotypes; five known β-tubulin isotypes, β1, β2, β4 have Cys239, β3 and β5 have serine): binding is restricted to those β-tubulin isotypes that have a cysteine residue at amino acid position 239 in β-tubulin | binding to cellular tubulin (cellular tubulin): time- and concentration-dependent
